The source made the active and inactive calls. For most assays here, no stated cut-off is given here; in the data, actives have a measured Kd and inactives only a lower limit.
Experiments:
[1] = biological target: Mitogen-activated protein kinase 14 (Homo sapiens, UniProt Q16539)
Wee1-like protein kinase = Wee1-like protein kinase (Homo sapiens, UniProt P30291)
[2] = biological target: T1, Interleukin-1 receptor-associated kinase 4 (Homo sapiens, UniProt Q9NWZ3)
T1 sequence (Q9NWZ3 whole entry): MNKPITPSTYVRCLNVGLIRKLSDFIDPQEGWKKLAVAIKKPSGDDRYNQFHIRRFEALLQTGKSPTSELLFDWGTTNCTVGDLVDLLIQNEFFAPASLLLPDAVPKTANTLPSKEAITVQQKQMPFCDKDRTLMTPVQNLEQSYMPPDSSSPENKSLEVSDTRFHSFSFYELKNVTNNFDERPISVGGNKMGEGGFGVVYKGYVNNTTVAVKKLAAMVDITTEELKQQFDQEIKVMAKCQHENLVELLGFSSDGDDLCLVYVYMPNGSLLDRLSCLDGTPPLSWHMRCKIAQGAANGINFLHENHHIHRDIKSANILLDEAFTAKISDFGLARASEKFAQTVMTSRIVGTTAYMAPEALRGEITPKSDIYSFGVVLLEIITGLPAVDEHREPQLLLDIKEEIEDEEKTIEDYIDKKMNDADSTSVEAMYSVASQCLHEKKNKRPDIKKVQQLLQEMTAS

[3] = biological target: T2, Serine/threonine-protein kinase LATS1 (Homo sapiens, UniProt O95835)
T2 sequence (O95835 whole entry): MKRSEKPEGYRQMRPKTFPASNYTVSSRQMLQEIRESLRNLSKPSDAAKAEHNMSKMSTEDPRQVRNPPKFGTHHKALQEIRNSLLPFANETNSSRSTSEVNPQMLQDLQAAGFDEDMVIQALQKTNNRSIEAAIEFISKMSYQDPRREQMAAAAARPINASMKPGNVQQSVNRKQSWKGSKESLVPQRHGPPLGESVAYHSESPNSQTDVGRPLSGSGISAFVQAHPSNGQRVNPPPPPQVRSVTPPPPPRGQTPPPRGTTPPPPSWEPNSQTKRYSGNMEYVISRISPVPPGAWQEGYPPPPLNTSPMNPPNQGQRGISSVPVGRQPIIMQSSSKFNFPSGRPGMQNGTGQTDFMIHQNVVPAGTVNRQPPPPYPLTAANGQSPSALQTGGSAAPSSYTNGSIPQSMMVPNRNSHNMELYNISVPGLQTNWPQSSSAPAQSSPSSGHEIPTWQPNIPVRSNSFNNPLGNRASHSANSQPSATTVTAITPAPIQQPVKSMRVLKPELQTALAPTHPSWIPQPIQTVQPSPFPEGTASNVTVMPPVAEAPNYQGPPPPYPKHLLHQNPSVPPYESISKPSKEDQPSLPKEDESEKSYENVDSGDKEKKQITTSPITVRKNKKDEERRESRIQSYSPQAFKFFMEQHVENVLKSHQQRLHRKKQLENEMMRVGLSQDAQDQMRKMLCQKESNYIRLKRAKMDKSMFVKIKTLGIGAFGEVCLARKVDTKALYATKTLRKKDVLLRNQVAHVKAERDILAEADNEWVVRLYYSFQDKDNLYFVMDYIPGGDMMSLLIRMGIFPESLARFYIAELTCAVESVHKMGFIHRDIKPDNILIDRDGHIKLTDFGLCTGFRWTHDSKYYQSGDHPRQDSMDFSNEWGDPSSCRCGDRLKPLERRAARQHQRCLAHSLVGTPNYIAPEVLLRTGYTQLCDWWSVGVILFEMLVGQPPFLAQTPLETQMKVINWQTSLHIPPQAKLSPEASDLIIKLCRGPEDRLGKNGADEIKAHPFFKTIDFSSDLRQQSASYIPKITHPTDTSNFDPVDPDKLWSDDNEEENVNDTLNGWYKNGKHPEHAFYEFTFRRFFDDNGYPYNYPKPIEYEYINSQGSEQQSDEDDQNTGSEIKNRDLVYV

[4] = biological target: Mitogen-activated protein kinase 11 (Homo sapiens, UniProt Q15759)
[5] = biological target: T3, Glycogen phosphorylase, liver form (Homo sapiens, UniProt P06737); format: subcellular, K-562, COLO 205, SK-N-BE(2) and MV-4-11, Cell lysate; conditions: read-out: Kd apparent
T3 sequence (P06737 whole entry): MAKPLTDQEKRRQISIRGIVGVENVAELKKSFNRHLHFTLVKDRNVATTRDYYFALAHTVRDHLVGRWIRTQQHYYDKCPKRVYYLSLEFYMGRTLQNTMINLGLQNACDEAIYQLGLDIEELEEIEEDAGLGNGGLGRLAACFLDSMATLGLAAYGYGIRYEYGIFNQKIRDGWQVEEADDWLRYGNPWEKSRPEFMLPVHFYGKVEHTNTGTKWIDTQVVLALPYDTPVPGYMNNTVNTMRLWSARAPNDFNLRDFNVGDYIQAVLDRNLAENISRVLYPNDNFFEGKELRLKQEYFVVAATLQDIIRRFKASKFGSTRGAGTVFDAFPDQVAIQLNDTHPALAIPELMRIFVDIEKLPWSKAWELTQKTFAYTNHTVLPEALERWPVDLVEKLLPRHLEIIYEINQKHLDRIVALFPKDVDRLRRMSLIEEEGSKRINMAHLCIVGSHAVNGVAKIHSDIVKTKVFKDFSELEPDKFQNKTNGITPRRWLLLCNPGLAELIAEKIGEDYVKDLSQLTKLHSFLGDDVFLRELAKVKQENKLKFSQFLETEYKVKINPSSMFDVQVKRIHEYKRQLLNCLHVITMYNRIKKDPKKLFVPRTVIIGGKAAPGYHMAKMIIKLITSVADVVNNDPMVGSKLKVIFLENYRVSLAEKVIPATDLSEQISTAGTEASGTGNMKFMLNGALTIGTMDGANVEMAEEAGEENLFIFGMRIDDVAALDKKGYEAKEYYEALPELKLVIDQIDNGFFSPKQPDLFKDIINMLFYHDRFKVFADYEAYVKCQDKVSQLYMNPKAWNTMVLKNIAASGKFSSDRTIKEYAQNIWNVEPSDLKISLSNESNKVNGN

[6] = biological target: MAP kinase-activated protein kinase 2 (Homo sapiens, UniProt P49137)
[7] = biological target: Protein kinase C beta type (Homo sapiens, UniProt P05771)
Chain of Protein kinase C beta type (P05771 whole entry): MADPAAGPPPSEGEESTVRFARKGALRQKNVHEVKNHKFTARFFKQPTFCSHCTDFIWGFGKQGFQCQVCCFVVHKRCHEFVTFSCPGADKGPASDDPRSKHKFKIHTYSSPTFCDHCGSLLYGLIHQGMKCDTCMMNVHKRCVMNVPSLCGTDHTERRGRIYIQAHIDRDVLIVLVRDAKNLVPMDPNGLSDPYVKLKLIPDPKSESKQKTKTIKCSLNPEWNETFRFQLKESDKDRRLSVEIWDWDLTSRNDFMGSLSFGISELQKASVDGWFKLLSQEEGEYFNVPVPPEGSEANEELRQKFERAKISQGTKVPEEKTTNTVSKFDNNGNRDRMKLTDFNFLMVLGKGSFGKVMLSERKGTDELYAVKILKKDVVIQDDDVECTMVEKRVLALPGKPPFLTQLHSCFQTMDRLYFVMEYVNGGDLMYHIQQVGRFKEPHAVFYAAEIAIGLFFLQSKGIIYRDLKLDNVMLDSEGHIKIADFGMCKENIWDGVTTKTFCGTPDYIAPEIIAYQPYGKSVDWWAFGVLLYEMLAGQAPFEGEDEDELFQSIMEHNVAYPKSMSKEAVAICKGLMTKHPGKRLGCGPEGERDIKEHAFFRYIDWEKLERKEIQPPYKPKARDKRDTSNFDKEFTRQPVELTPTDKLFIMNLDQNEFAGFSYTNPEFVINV

Chain of Mitogen-activated protein kinase 14 (Q16539 whole entry): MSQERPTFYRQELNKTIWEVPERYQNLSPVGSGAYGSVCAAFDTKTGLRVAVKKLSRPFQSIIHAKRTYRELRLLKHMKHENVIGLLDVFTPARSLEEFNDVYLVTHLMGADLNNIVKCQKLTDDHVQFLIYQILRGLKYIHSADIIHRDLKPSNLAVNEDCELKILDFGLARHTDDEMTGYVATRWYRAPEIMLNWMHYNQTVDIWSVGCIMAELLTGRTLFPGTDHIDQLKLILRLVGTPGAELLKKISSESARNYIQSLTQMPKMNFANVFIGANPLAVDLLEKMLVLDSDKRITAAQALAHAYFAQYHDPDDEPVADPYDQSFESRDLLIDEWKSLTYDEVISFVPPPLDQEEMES
Chain of Wee1-like protein kinase (P30291 whole entry): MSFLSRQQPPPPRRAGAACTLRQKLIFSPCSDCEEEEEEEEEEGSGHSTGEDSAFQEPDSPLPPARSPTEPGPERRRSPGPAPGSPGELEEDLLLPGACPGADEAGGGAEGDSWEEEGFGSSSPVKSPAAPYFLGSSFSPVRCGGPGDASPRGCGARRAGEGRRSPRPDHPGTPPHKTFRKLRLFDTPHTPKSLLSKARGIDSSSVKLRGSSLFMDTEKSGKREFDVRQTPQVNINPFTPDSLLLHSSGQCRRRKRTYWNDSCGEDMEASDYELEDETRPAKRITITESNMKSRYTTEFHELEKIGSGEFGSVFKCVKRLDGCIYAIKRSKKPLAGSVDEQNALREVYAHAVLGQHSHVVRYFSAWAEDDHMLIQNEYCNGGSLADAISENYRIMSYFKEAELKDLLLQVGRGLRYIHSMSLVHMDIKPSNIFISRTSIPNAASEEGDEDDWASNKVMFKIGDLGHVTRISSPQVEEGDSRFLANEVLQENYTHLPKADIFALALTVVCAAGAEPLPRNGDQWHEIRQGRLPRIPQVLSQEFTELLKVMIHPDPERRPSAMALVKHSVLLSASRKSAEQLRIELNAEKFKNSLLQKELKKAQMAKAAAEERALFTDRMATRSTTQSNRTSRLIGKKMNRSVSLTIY
Chain of MAP kinase-activated protein kinase 2 (P49137 whole entry): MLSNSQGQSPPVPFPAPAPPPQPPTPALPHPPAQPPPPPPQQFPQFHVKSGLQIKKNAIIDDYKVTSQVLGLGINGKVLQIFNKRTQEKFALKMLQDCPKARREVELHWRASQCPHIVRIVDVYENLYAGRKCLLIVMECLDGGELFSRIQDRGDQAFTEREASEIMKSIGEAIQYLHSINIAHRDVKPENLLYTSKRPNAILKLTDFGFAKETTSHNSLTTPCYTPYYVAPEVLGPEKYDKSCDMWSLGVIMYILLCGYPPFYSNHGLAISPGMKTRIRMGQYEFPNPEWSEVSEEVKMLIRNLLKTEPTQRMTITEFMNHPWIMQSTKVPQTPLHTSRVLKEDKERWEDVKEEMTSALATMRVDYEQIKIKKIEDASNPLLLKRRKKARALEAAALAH
Chain of Mitogen-activated protein kinase 11 (Q15759 whole entry): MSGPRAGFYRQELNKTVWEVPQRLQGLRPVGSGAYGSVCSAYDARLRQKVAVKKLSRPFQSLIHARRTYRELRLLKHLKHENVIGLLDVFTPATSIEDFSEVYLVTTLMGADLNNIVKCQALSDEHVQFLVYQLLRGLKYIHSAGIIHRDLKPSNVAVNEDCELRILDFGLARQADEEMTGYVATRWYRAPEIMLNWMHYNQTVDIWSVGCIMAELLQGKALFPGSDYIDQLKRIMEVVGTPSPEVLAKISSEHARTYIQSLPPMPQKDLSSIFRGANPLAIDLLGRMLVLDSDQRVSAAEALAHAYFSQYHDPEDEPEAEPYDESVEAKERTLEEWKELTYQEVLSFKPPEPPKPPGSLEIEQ

O=c1[nH]ccc2cc(OC3CCNCC3)ccc12 [SAR-407899 FREE BASE]
Kd [1]: > 30 µM (inactive) | Kd (Wee1-like protein kinase): > 30 µM (inactive) | Kd [2]: > 30 µM (inactive) | Kd [3]: > 30 µM (inactive) | Kd [4]: > 30 µM (inactive) | Kd [5]: > 30 µM (inactive) | Kd [6]: > 30 µM (inactive) | Kd [7]: > 30 µM (inactive)

CN1CCN(CCOc2cc(OC3CCOCC3)c3c(Nc4c(Cl)ccc5c4OCO5)ncnc3c2)CC1 [SARACATINIB]
Kd [1]: > 30 µM (inactive) | Kd (Wee1-like protein kinase): > 30 µM (inactive) | Kd [2]: > 30 µM (inactive) | Kd [3]: > 30 µM (inactive) | Kd [4]: > 30 µM (inactive) | Kd [5]: > 30 µM (inactive) | Kd [6]: > 30 µM (inactive) | Kd [7]: > 30 µM (inactive)

Cn1cc(-c2cnn3c(N)c(Br)c([C@@H]4CCCNC4)nc23)cn1 [SCH-900776]
Kd [1]: > 30 µM (inactive) | Kd (Wee1-like protein kinase): > 30 µM (inactive) | Kd [2]: 4.01 µM | Kd [3]: 4.62 µM (active) | Kd [4]: > 30 µM (inactive) | Kd [5]: > 30 µM (inactive) | Kd [6]: > 30 µM (inactive) | Kd [7]: > 30 µM (inactive)

CO[C@H]1C[C@@H]2CC[C@@H](C)[C@@](O)(O2)C(=O)C(=O)N2CCCC[C@H]2C(=O)O[C@H]([C@H](C)C[C@@H]2CC[C@@H](O)[C@H](OC)C2)CC(=O)[C@H](C)/C=C(\C)[C@@H](O)[C@@H](OC)C(=O)[C@H](C)C[C@H](C)/C=C/C=C/C=C/1C [SIROLIMUS]
Kd [1]: > 30 µM (inactive) | Kd (Wee1-like protein kinase): > 30 µM (inactive) | Kd [2]: > 30 µM (inactive) | Kd [3]: > 30 µM (inactive) | Kd [4]: > 30 µM (inactive) | Kd [5]: > 30 µM (inactive) | Kd [6]: > 30 µM (inactive) | Kd [7]: > 30 µM (inactive)

CCS(=O)(=O)c1cccc(-c2cc(C(=O)NC3CCN(C)CC3)c(C)c3[nH]c4ncc(C)cc4c23)c1 [TAK-901]
Kd [1]: > 30 µM (inactive) | Kd (Wee1-like protein kinase): > 30 µM (inactive) | Kd [2]: 2.13 µM (active) | Kd [3]: > 30 µM (inactive) | Kd [4]: > 30 µM (inactive) | Kd [5]: > 30 µM (inactive) | Kd [6]: > 30 µM (inactive) | Kd [7]: > 30 µM (inactive)

CO[C@H]1C[C@@H]2CC[C@@H](C)[C@@](O)(O2)C(=O)C(=O)N2CCCC[C@H]2C(=O)O[C@H]([C@H](C)C[C@@H]2CC[C@@H](OC(=O)C(C)(CO)CO)[C@H](OC)C2)CC(=O)[C@H](C)/C=C(\C)[C@@H](O)[C@@H](OC)C(=O)[C@H](C)C[C@H](C)/C=C/C=C/C=C/1C [TEMSIROLIMUS]
Kd [1]: > 30 µM (inactive) | Kd (Wee1-like protein kinase): > 30 µM (inactive) | Kd [2]: > 30 µM (inactive) | Kd [3]: > 30 µM (inactive) | Kd [4]: > 30 µM (inactive) | Kd [5]: > 30 µM (inactive) | Kd [6]: > 30 µM (inactive) | Kd [7]: > 30 µM (inactive)

COc1cc2c(Nc3ccc(Cl)c(Cl)c3F)ncnc2cc1OC[C@@H]1C[C@@H]2CN(C)C[C@@H]2C1 [TESEVATINIB]
Kd [1]: > 30 µM (inactive) | Kd (Wee1-like protein kinase): > 30 µM (inactive) | Kd [2]: 1.17 µM (active) | Kd [3]: > 30 µM (inactive) | Kd [4]: > 30 µM (inactive) | Kd [5]: > 30 µM (inactive) | Kd [6]: 1.52 µM (active) | Kd [7]: > 30 µM (inactive)

O=C(Cc1ccc(-c2ccc(OCCN3CCOCC3)cc2)cn1)NCc1ccccc1 [TIRBANIBULIN]
Kd [1]: > 30 µM (inactive) | Kd (Wee1-like protein kinase): > 30 µM (inactive) | Kd [2]: > 30 µM (inactive) | Kd [3]: > 30 µM (inactive) | Kd [4]: > 30 µM (inactive) | Kd [5]: > 30 µM (inactive) | Kd [6]: > 30 µM (inactive) | Kd [7]: > 30 µM (inactive)

O=C1NC(=O)[C@@H](c2cn3c4c(cccc24)CCC3)[C@@H]1c1c[nH]c2ccccc12 [TIVANTINIB]
Kd [1]: > 30 µM (inactive) | Kd (Wee1-like protein kinase): > 30 µM (inactive) | Kd [2]: > 30 µM (inactive) | Kd [3]: > 30 µM (inactive) | Kd [4]: > 30 µM (inactive) | Kd [5]: > 30 µM (inactive) | Kd [6]: > 30 µM (inactive) | Kd [7]: > 30 µM (inactive)

C[C@@H](NC(=O)c1ncnc(N)c1Cl)c1ncc(C(=O)Nc2cc(C(F)(F)F)c(Cl)cn2)s1 [TOVORAFENIB]
Kd [1]: 0.358 µM (active) | Kd (Wee1-like protein kinase): 0.252 µM (active) | Kd [2]: > 30 µM (inactive) | Kd [3]: > 30 µM (inactive) | Kd [4]: 0.684 µM (active) | Kd [5]: > 30 µM (inactive) | Kd [6]: > 30 µM (inactive) | Kd [7]: > 30 µM (inactive)

Cc1cc(Nc2ncnc3ccc(NC4=NC(C)(C)CO4)cc23)ccc1Oc1ccn2ncnc2c1 [TUCATINIB]
Kd [1]: > 30 µM (inactive) | Kd (Wee1-like protein kinase): > 30 µM (inactive) | Kd [2]: > 30 µM (inactive) | Kd [3]: > 30 µM (inactive) | Kd [4]: > 30 µM (inactive) | Kd [5]: > 30 µM (inactive) | Kd [6]: > 30 µM (inactive) | Kd [7]: > 30 µM (inactive)

CC(C)c1cc(CNc2nc(Nc3cc(C4CC4)[nH]n3)cc(N3CCN(C)CC3)n2)on1 [XL-228]
Kd [1]: > 30 µM (inactive) | Kd (Wee1-like protein kinase): > 30 µM (inactive) | Kd [2]: > 30 µM (inactive) | Kd [3]: > 30 µM (inactive) | Kd [4]: > 30 µM (inactive) | Kd [5]: > 30 µM (inactive) | Kd [6]: > 30 µM (inactive) | Kd [7]: > 30 µM (inactive)

CN1C/C=C/CCOc2cccc(c2)-c2ccnc(n2)Nc2cccc(c2)C1 [ZOTIRACICLIB]
Kd [1]: > 30 µM (inactive) | Kd (Wee1-like protein kinase): > 30 µM (inactive) | Kd [2]: > 30 µM (inactive) | Kd [3]: > 30 µM (inactive) | Kd [4]: > 30 µM (inactive) | Kd [5]: > 30 µM (inactive) | Kd [6]: > 30 µM (inactive) | Kd [7]: 4.32 µM (active)

— ChEMBL document CHEMBL3991601, “The target landscape of clinical kinase drugs” (Science, 2017)
